# According to patent publication US11378572B2, “Therapeutic agent for immune cell migration-caused disease and method for screening same” (ZYMEDI CO., LTD., priority 2017, dated 2022):
# Legend:
# [1] = test system: Dahl salt-sensitive (SS) rats; experiment: Dahl salt-sensitive (SS) rat on high salt diet; type: in vivo
# Description: Experiments were performed using male Dahl SS rats at 9-12 weeks of age. These animals were provided by the University of Mississippi Medical Center and approved by the American Association for Accreditation of Laboratory Animal Care (AAALAC). All protocols were approved by the Institutional Animal Care and Use Committee of the University of Mississippi Medical Center. Rats were fed ad libitum, and these rats were provided with a purified AIN-76 rodent feed containing 0.4% NaCl (Dyets, Bethlehem, Pa.) after weaning. Dahl salt-sensitive (SS) rat is an animal model that rapidly develops high hypertension, proteinuria, glomerulosclerosis and renal interstitial fibrosis on high salt (HS) diet.
# Dahl SS rats were anesthetized with isoflurane and telemetry transmitters (model TA11PAC40, Data Sciences International, St. Paul, Minn.) were aseptically implanted in the same manner as described above. After surgery, rats were housed in individual cages in a quiet air-conditioned room environment with a 12:12 hour light-dark cycle and it took a week to fully recover from surgery. Then, the baseline mean arterial blood pressure (MAP) was measured before the rats were placed in the metabolic cage to measure urine protein excretion. Proteinuria was measured using the Bradford method and BSA (Bio-Rad Laboratories, Hercules, Calif.) as a standard.
# Rats were then randomly divided into two experimental groups: Group 1 (n=15) was treated with BC-KI-00053 (25 mg/kg daily) by gastrointestinal gavage; Group 2 (n=15) was administered by gastrointestinal gavage with the same volume (2.5 ml/kg per day) of vehicle (corn oil, polyethylene glycol 400, Tween 80 and methyl cellulose). Simultaneously with the administration of agents, feed was changed to HS feed containing 8% NaCl (Dyets, Bethlehem, Pa.) and blood pressure and proteinuria were measured at 7, 14 and 21 days after starting HS feed. At the end of the experiment, rats were anesthetized with isoflurane and blood samples were taken to measure creatinine levels. Rats were then flushed with 50 ml of 0.9% NaCl through the aorta and perfused with 20 ml of 4% paraformaldehyde. Kidneys and hearts were collected for histological evaluation.
# Paraffin section preparation and evaluations of the degree of glomerular damage, cortex and medulla fibrosis were performed as described above. In addition, immunohistochemical staining (IHC) for CD68, a monocyte/macrophage marker for kidney tissue, was performed in the same manner as in Example 8.
# Statistics: Each data is expressed as mean±SEM. Comparison between groups was analyzed by two-tailed test. P value p<0.05 was considered statistically significant.
# [2] = test system: 129Sv/J Alport mice (COL4A3 knockout mouse); experiment: Animal model of Alport syndrome; type: in vivo, 129Sv/J mice; details: 100 mg/kg oral once a day, 4 weeks
# Description: The experiment was conducted using 129Sv/J mice (Boys town hospital). Animals groups were (i) 129Sv/J wild-type mice with vehicle administration (0.5% methyl cellulose suspension), (ii) 129Sv/J Alport mice (COL4A3 knockout mouse, Cosgrove D et al., Genes Dev. 1996 Dec. 1, 10(23):2981-92) with vehicle administration (0.5% methyl cellulose suspension) (iii) 129Sv/J Alport mice with BC-KI-00053 administration. Each animal group consists of two mice. BC-KI-00053 was dissolved in 0.5% methyl cellulose suspension and orally administered at a concentration of 100 mg/kg, and kidney fibrosis and the immune cell infiltration were evaluated. Each animal group was treated with a control substance or a test agent once a day from 3 weeks of age for a total of 4 weeks. After 4 weeks of treatment, kidney paraffin sections were stained with collagen I (a marker of fibrosis) and CD45 to observe the extent of leukocyte infiltration. Evaluation of fibrosis and infiltration was performed in the same manner as in the above examples.
# [3] = test system: liver ischemia-reperfusion injury model; experiment: Liver ischemia-reperfusion injury model; type: in vivo, CX3CR1-GFP mice; details: 100 mg/kg oral once daily, 3 days; 24 hours of reperfusion
# Description: A liver ischemia-reperfusion injury model was prepared using CX3CR1-GFP mice to investigate the effect of inhibitors of KRS translocation to the plasma membrane on the monocyte infiltration during ischemic immune responses. Monocytes, macrophages and Kupffer's cells appear green in CX3CR1-GFP mice. Mice were orally administered with vehicle or BC-KI-00053 (100 mg/kg, dissolved in vehicle, once daily) for a total of three days beginning two days before imaging (D-2, D-1, D-0). For vehicle, corn oil:polyethylene glycol 400: Tween 80: methyl cellulose (1%)=20:30:1:49 was used. On day 3 of oral administration (D-0), triad (bile duct, hepatic artery, […]) occlusion was performed using a 6-0 suture as shown in FIG. 8a. Triad occlusion was performed for 30 minutes to induce acute inflammation, and 3 g of Eppendorf tubes were suspended from both ends of the suture. Suture was removed and the ischemic inflammation site was observed immediately after reperfusion (0 hour) and 24 hours later. At this time, blood vessels were labeled with Alexa Flour 555-bound anti-CD31 antibody for repeated imaging (identifiable as red). Two-photon microscope was used as an imaging equipment.
compound,measurement,setting,value
"COc1ccc(CCN(Cc2ccc(C(=O)O)cc2)c2nc3cccc(F)c3s2)cc1 [BC-KI-00053, 4-({(7-fluorobenzo[d]thiazol-2-yl)[2-(4-methoxyphenyl)ethyl]amino}methyl)benzoic acid]",cortical fibrosis,[1]; 25 mg/kg daily 3 weeks,6.47±0.46%
same,renal medulla fibrosis,[1]; 25 mg/kg daily 3 weeks,12.33±0.78%
same,renal tissue infiltration of monocytes/macrophages (CD68 IHC),[1]; 25 mg/kg daily 3 weeks,significantly reduced
same,cardiac fibrosis,"[1]; 25 mg/kg daily 3 weeks, Sirius red",6.63±0.94%
same,mean glomerular injury score,"[1]; 25 mg/kg daily 3 weeks, score 0 to 4+",1.34±0.04
same,body weight during the study period,"[1]; 25 mg/kg daily gavage, 3 weeks",maintained or increased slightly
same,MAP,"[1]; 25 mg/kg daily, after 2 weeks of treatment, HS diet",164.43±3.00 mmHg
same,proteinuria,"[1]; 25 mg/kg daily, after one week of treatment, HS diet",302.86 ± 29.76 mg/day
same,proteinuria,"[1]; 25 mg/kg daily, after two weeks of treatment, HS diet",510.64 ± 42.42 mg/day
same,plasma creatinine concentration,"[1]; 25 mg/kg daily, end of experiment",0.55 ± 0.01 mg/dL
same,proteinuria,"[1]; 25 mg/kg daily, end of study, HS diet",524.55 ± 44.70 mg/day
same,MAP,"[1]; 25 mg/kg daily, study completed (21 days), HS diet",178.48±3.49 mmHg
same,MAP,"[1]; baseline, before treatment",123.45±2.36 mmHg
same,proteinuria,"[1]; baseline, before treatment",113.27 ± 8.06 mg/day
same,baseline body weight,"[1]; baseline, before treatment, mean±SEM",350.13 ± 9.173 g
same,fibrosis in the kidneys (collagen I),[2],reduced down to the normal level
same,leukocyte infiltration in the kidneys (CD45),[2],reduced down to the normal level
same,monocyte/macrophage infiltration into occluded liver area,[3],significantly reduced
